Common to all, as to assay type: in vivo
One test relates to Penicillium digitatum. As to the kind of experiment: Postharvest decay of 'Michal' clementine fruit sprayed with conidia. The conditions noted are these: 4 mM phenylalanine, FIG. 6. Here is the method: FIGS. 6A-6C are graphs and a photograph showing induced resistance of harvested clementine fruit to fungal pathogens. FIG. 6A is a vertical bar showing the % of decayed Clementine fruit (in a box) of the cultivar ‘Michal’ which were dipped for 30 seconds in 4 mM phenylalanine. After the fruits were dried, they were sprayed with conidia suspension of Penicillium digitatum (early infection), or alternatively the fruit was sprayed with conidia suspension two days after being dipped in phenylalanine (late infection). FIG. 6B is representative pictures of inoculated fruits of control and treatment with 4 mM phenylalanine, 5 days post inoculation. FIG. 6C is diagrams of taste evaluation of control fruit (upper panel) and phenylalanine treated fruit (lower panel) which include off-flavors (index 1-5), acidity (index 1-5), sweetness (index 1-5), and general taste (index 1-5).

Test [1] in a line: Mango fruit decay in cold storage after post-harvest treatment. The method, then: FIGS. 19A-19G are images and graphs showing the effect of Phe solution on fruit post-harvest rotting under cold temperature resistance. (19A-19B) are images showing post-harvest control and treated mango fruits, respectively, stored in 7° C. […] (19C-19D) are vertical bar graphs showing indices of spots (19C) and pitting (19D) of mango fruits infected by Colletotrichum or Lasiodiplodia under 7° C. (19E-19G) are vertical bar graph showing […] decay was shown at 7° C., and side decay and total decay were shown at 7° C. and 10° C.
Mango fruits were treated with Phe solution post-harvest. Fruits were stored in either 7° C. or 10° C., and decay was inspected and documented. Post-harvest treatment as described hereinabove reduced stem decay, side decay, and total decay (FIGS. 19E-19G). […] Fruits were both treated with AAA and infested with […] post-harvest. […] (FIGS. 19C-19D).

A further test concerns Anthracnose. Put plainly: Anthracnose incidence on harvested mango after orchard flowering spray. As to conditions: application during orchard flowering; stored at ambient temperature for 12 days; FIG. 23B. From the text:
FIGS. 23A-C: Effect of flowering application on disease incidence. Avocado and Mango cv. ‘Kent’ orchards were sprayed with fungicide (Pyrimethanil+Fludioxonil) or with phenylalanine during flowering. (FIG. 23A). Powdery Mildew incidence (percentage) per inflorescence in mango orchard. (FIG. 23B). Anthracnose incidence (percentage) on harvested mango stored at ambient temperature for 12 days. (FIG. 23CB). Anthracnose incidence (percentage) on harvested avocado stored at ambient temperature for 14 days.
Flowering is one of the more susceptible organs of the tree. Pathogenic fungi can penetrate during flowering and either infect the flower (e.g., powdery mildew) or endophytically colonize the stem and the fruit without causing any visible symptoms. Those fungi (e.g. Colletotrichum and Lasiodiplodia) become active during abiotic stress or during fruit ripening and cause fruit stem-end rot and anthracnose.

A short description of test [2]: Plant crop production (fruits). The method, then: FIGS. 21A-21D are bar graphs showing the effects of 1-4 mM solution on plant crop production (e.g., fruits). Plants were treated with 2 mM once or twice, once with 4 mM or non-treated (control). (21A) is a graph showing the cumulative weight of fruits per plant. (21B) is a graph showing the number of fruits per plant. (21C) is a graph showing the average weight of a fruit. (21D) is a graph showing the number of young fruits, e.g., “set fruit”.

Another test concerns Bemisia tabaci. As to the kind of experiment: Silver leaf whitefly incidence on tomato leaves. As to conditions: 4 mM Phe solution, drench or spray, each treatment; 30 days after treatment; FIG. 10. The method, then: FIG. 10 is a bar graph showing the effect of 4 mM Phe solution on the severity of silver leaf white fly (SLWF) on tomato plants. The Phe solution was applied by spraying and by drench on the tomato plants at 3 days before and 4 hours before incubation in the greenhouse. Incidence of SLWF was evaluated on a representative leaf 30 days after treatment.
The insect silver leaf whitefly Bemisia tabaci Gennadius (commonly also sweet potato whitefly) occurred naturally on the treated tomato plants. The plants were kept in a greenhouse with 18-28° C. Incidence of insect individuals' number on the 10th leaf of the tomato plants was counted.

The subject of a further test is Lasiodiplodia theobromae. Put plainly: Postharvest decay of 'Shelly' mango fruit, wound inoculated. The conditions noted are these: for Inhibition of pathogenic activity: postharvest, mango. Here is the method: (§1) FIGS. 4A-4B are graphs showing induced resistance of harvested Mango fruit to fungal pathogens. FIG. […] A day later the treated or untreated fruits were wound inoculated on four spots in each fruit with 7 μl of Lasiodiplodia theobromas conidia suspension (10^6 conidia/ml) and the decay area was monitored for 7 days post inoculation (dpi). FIG. […] A day later the treated or untreated fruits were wound inoculated on four spots in each fruit with 7 μl of Colletotrichum gloeosporioides conidia suspension (10^6 conidia/ml) and the decay area was monitored for 14 days post inoculation (dpi).

The test system of test [3] is Colletotrichum gloeosporioides. The test is described as above. As to conditions: for Inhibition of pathogenic activity: postharvest, mango. The method, then: as §1
The test system of another test is Botrytis. As to the kind of experiment: Resistance of petunia plants to Botrytis, increasing Phe concentrations. Here is the method:
The effect of treating petunia plants with increased concentrations of Phe was assessed: plants were either sprayed or drenched with increasing concentration of Phe three days prior to infection with Botrytis and on the day of infection. The infected area was followed for 7-10 days after infection.

Setting [4] is: postharvest treatment of 'Shelly' mango, FIG. 4.

The values that follow come from patent US20200383327A1, “METHOD OF IMPROVING PLANT PERFORMANCE” (The State of Israel, Ministry of Agriculture & Rural …, priority 2018, published 2020).

Regarding `N[C@@H](Cc1ccccc1)C(=O)O` [Phe, Phenylalanine], the “Decay severity in comparison to the untreated control fruits” value (in the test on Penicillium digitatum; in the test on Lasiodiplodia theobromae (setting [4]); in test [3] (setting [4])) was “reduced the decay severity” throughout. Besides, in test [1] (post-harvest Phe solution, mango stored at 7° C. or 10° C., FIG. 19E), the Stem decay entry was “reduced”. In test [1] (post-harvest Phe solution, mango stored at 7° C. or 10° C., FIG. 19F), the Side decay result is “reduced”. Also, the Total decay result in test [1] (post-harvest Phe solution, mango stored at 7° C. or 10° C., FIG. 19G) is given as “reduced”. Also, the “Black spots on fruits, control versus treated” value in test [1] (post-harvest mango fruits stored in 7° C., FIGS. 19A-19B) is on record as “Control fruits were shown to have substantially more black spots”. For the same compound, the “Postharvest anthracnose in mango” value in the test with Anthracnose is “reduced”. The “Number of young fruits (set fruit)” value in test [2] (4 mM-treated plants vs control, FIG. 21D) is listed as “greater number of young fruits”. In addition, the “Total crop yielded (fruits)” value in test [2] (Phe solution vs control) is “significantly increased the total crop yielded”. In addition, the Cumulative fruit weight entry in test [2] (Phe treated vs control) is recorded as “significantly greater cumulative fruit weight”. In addition, in test [2] (Phe treated vs control), the Number of fruits result is reported as “comparable amount”. Moreover, in test [2] (Phe treated vs control, FIG. 21C), the “Average weight per fruit” value was “significantly greater average weight per fruit”. In the test with Bemisia tabaci, the “Incidence of the Bemisia tabaci silver leaf whitefly on tomato leaves” value is given as “significantly suppressed”. The “Inhibition of pathogenic activity” value is “did not suffice” in the test with Lasiodiplodia theobromae (2 mM phenylalanine), “substantially inhibited the pathogenic activity” with Lasiodiplodia theobromae (4 mM phenylalanine), “did not suffice” in test [3] (2 mM phenylalanine) and “substantially inhibited the pathogenic activity” in test [3] (4 mM phenylalanine). In the test with Botrytis (6 mM Phe, sprayed or drenched, petunia, 7-10 days after infection), the “Protection against Botrytis” value was “might not be effective enough”. Also, the “Plant health and pathogen status” value in the test with Botrytis (15 and 35 mM Phe, drenched, petunia) is on record as “healthy, pathogen free”. Further, the “Resistance to Botrytis” value in the test with Botrytis (35 and 50 mM Phe, sprayed, petunia, FIG. 7) was “much higher resistance to Botrytis”. The “Phe concentration at which resistance to Botrytis was apparent” value is given as not below 6 mM in the test on Botrytis (drenching Phe, FIGS. 8A-8B) and not below 6 mM in the test on Botrytis (sprayed Phe, FIGS. 7A-7B).
